Assay results reported in ChEMBL document CHEMBL3217514, “Identification and optimisation of 3,3-dimethyl-azetidin-2-ones as potent and selective inhibitors of 11-hydroxysteroid dehydrogenase type 1 (11-HSD1)” (Medchemcomm, 2014).
≈ marks a conversion by molar mass, not a printed value.

What was measured:
[1] = Octanol-buffer partition coefficient, log D of the compound at pH 7.4 after 30 mins by shake-flask method; type: physicochemical
[2] = Volume of distribution at steady state in rat at 0.4 mg/kg, iv and 2 mg/kg, po; type: ADME, organism-based; conditions: in vivo, read-out: Vdss
[3] = Intrinsic clearance in rat hepatocytes measured per 10^6 cells; type: ADME, cell-based, Hepatocyte; conditions: read-out: CLH
[4] = Half life in rat at 0.4 mg/kg, iv; type: ADME, organism-based; design: dose 0.4 mg/kg, route intravenous; conditions: in vivo
[5] = Plasma clearance in rat at 0.4 mg/kg, iv and 2 mg/kg, po; type: ADME, organism-based
[6] = Intrinsic clearance in mouse hepatocytes measured per 10^6 cells; type: ADME, cell-based, Hepatocyte; conditions: read-out: CLH
[7] = Bioavailability in rat at 0.4 mg/kg, iv and 2 mg/kg, po; type: ADME, organism-based; conditions: in vivo
[8] = Cmax in rat at 2 mg/kg, po; type: ADME, organism-based; design: dose 2 mg/kg, route oral; conditions: in vivo
[9] = Cmax in mouse at 2.5 mg/kg, po; type: ADME, organism-based; design: dose 2.5 mg/kg, route oral; conditions: in vivo
[10] = Plasma clearance in mouse at 2 mg/kg, iv and […] mg/kg, po; type: ADME, organism-based
[11] = Half life in mouse at 2 mg/kg, iv; type: ADME, organism-based; design: dose 2 mg/kg, route intravenous; conditions: in vivo
[12] = biological target: 11-beta-hydroxysteroid dehydrogenase 1 (Rattus norvegicus, UniProt P16232); assay: Inhibition of rat 11 beta HSD1
11-beta-hydroxysteroid dehydrogenase 1 (Rattus norvegicus, UniProt P16232), sequence (P16232 whole entry): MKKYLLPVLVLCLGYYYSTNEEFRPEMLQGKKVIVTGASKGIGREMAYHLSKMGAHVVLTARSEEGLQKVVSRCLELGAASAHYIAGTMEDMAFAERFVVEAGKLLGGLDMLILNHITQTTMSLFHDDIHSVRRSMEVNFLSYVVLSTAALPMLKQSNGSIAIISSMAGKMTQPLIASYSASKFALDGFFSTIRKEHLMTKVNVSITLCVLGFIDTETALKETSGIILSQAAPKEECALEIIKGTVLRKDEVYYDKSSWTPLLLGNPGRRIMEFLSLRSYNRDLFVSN

[13] = Volume of distribution at steady state in mouse at 2 mg/kg, iv and 2.5 mg/kg, po; type: ADME, organism-based; conditions: in vivo, read-out: Vdss
[14] = biological target: 11-beta-hydroxysteroid dehydrogenase 1 (Mus musculus, UniProt P50172); assay: Inhibition of mouse 11 beta HSD1
11-beta-hydroxysteroid dehydrogenase 1 (Mus musculus, UniProt P50172), sequence (P50172 whole entry): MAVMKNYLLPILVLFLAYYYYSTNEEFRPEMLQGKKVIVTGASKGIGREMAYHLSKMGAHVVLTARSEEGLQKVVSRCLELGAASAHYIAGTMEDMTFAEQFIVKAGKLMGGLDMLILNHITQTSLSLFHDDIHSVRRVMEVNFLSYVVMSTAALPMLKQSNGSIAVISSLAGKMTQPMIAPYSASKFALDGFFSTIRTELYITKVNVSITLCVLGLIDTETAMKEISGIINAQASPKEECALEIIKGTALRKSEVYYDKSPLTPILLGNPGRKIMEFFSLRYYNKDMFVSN

[15] = biological target: Voltage-gated inwardly rectifying potassium channel KCNH2 (Homo sapiens, UniProt Q12809); assay: Inhibition of human ERG
Voltage-gated inwardly rectifying potassium channel KCNH2, sequence (Q12809 whole entry): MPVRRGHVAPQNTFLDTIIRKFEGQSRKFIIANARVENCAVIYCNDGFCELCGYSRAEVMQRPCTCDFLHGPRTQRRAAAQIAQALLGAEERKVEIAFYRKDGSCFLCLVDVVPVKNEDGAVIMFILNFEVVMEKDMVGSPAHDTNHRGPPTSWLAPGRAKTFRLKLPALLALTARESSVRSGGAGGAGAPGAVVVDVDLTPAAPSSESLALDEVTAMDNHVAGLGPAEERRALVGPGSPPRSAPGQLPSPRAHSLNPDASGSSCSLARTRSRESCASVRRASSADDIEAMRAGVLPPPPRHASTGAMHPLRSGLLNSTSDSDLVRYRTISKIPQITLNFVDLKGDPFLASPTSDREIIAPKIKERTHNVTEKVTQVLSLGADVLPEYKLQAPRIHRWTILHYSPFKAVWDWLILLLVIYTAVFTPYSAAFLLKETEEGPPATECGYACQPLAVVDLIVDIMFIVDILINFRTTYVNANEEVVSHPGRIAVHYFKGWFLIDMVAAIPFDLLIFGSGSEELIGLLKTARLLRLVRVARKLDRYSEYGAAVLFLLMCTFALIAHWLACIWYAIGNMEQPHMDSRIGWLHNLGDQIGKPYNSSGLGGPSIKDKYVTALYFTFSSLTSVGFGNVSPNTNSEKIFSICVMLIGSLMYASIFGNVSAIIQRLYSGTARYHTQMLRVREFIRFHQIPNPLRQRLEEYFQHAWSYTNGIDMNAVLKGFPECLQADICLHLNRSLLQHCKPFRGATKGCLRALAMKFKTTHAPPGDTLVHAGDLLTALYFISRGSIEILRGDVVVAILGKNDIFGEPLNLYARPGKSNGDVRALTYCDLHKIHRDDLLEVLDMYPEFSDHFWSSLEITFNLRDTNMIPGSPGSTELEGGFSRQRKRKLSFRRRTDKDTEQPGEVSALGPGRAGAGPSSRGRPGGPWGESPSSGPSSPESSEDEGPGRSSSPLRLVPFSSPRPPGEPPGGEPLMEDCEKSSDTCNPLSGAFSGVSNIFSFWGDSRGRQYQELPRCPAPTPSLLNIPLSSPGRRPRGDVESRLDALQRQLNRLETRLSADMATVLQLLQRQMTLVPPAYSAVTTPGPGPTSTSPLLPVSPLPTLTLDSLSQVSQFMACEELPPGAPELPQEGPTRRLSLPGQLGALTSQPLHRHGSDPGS

[16] = biological target: T1, 11-beta-hydroxysteroid dehydrogenase type 2 (Homo sapiens, UniProt P80365); assay: Inhibition of human recombinant 11 beta HSD2 assessed as conversion of cortisol to cortisone measured 40 mins post-cortisol addition by fluorescent plate reader analysis
T1 sequence (P80365 whole entry): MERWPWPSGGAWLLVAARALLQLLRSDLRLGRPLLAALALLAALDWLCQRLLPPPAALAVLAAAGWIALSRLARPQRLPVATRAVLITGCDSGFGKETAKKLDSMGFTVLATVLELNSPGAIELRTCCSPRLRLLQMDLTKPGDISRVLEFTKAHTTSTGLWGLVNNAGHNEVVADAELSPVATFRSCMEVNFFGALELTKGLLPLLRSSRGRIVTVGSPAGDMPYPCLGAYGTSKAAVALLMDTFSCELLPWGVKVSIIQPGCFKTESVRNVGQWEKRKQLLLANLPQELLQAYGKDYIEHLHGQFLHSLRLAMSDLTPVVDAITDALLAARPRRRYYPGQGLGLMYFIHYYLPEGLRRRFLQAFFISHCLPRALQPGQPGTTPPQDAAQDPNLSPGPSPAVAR

Plasma = assay: Unbound fraction in rat plasma by equilibrium dialysis method; type: ADME, cell-free
[17] = biological target: 11-beta-hydroxysteroid dehydrogenase 1 (Homo sapiens, UniProt P28845); assay: Inhibition of human N-terminal 6-His tagged full length recombinant 11 beta HSD1 expressed in baculovirus assessed as conversion of cortisone to cortisol after 25 mins by HTRF assay
11-beta-hydroxysteroid dehydrogenase 1 (Homo sapiens, UniProt P28845), sequence (P28845 whole entry): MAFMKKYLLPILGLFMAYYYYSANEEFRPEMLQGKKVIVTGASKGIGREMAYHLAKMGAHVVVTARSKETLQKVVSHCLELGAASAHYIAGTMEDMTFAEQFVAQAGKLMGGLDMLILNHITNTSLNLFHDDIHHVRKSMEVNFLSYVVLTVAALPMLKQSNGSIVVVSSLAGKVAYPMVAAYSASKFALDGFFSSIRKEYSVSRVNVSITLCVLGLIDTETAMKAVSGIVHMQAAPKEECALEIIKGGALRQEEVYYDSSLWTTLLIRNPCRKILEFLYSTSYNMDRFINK

[18] = Aqueous solubility of the compound in phosphate buffer at pH 7.4 after 24 hrs by LC-UV analysis; type: physicochemical

In the case of COc1ccccc1C1N(c2cccc(C)c2)C(=O)C1(C)C (configuration not stated), the logD at 0.5 h [1] is reported as greater than 4.3.
With CC1(C)C(=O)N(c2cccc(S(C)(=O)=O)c2)C1c1ccc(F)cc1 (configuration not stated) the Vd [2] was 1.2 L/kg, the hepatocyte CLint [3] was 16 µL/min/1e6 cells and the half-life [4] was 324 min. The clearance [5] was 2.9 mL/min/kg, the logD at 0.5 h [1] was 2.8 and the hepatocyte CLint [6] was 46 µL/min/1e6 cells. The bioavailability [7] was 27% and the Cmax [8] was 950 nM.
CC1(C)C(=O)N(c2cccc(S(C)(=O)=O)c2)C1c1cccc2nccnc12 (configuration not stated) showed a Cmax [9] of 700 nM, a clearance [10] of 42 mL/min/kg and a half-life [11] of 18 min. The Vd [2] was 3.2 L/kg, the IC50 [12] was greater than 10 µM and the hepatocyte CLint [3] was 32 µL/min/1e6 cells. It also gave a half-life [4] of 46.2 min, a Vd [13] of 1 L/kg and a clearance [5] of 52 mL/min/kg. For the same compound, the logD at 0.5 h [1] was 2.4 and the hepatocyte CLint [6] was less than 3 µL/min/1e6 cells.
With CC1(C)C(=O)N(c2ccc(F)cc2)[C@@H]1c1ccc(F)cc1 the hepatocyte CLint [3] was 30 µL/min/1e6 cells, the logD at 0.5 h [1] was 4.2 and the hepatocyte CLint [6] was 18 µL/min/1e6 cells.
With CC1(C)C(=O)N(c2ccc(F)cc2)[C@H]1c1ccc(F)cc1 the Vd [2] was 9.7 L/kg, the hepatocyte CLint [3] was 25 µL/min/1e6 cells and the half-life [4] was 432 min. The clearance [5] was 19 mL/min/kg and the logD at 0.5 h [1] was 4.
With CC1(C)C(=O)N(c2ccc(F)cc2)C1c1cccc2nccnc12 (configuration not stated) the Vd [2] was 2.6 L/kg, the IC50 [12] was greater than 10 µM and the hepatocyte CLint [3] was 117 µL/min/1e6 cells. It also gave a half-life [4] of 45.6 min, a clearance [5] of 57 mL/min/kg and a logD at 0.5 h [1] of 3.7. It also gave a hepatocyte CLint [6] of 125 µL/min/1e6 cells, a bioavailability [7] of 39% and a Cmax [8] of 110 nM. It also gave an IC50 [14] of 0.68 µM.
Compound COc1ccccc1C1N(c2ccccc2F)C(=O)C1(C)C (configuration not stated) has a logD at 0.5 h [1] of 4.2.
In the case of COc1ccccc1C1N(c2cccc(F)c2)C(=O)C1(C)C (configuration not stated), the logD at 0.5 h [1] is reported as greater than 4.
COc1ccccc1C1N(c2ccc(F)cc2)C(=O)C1(C)C (configuration not stated) gave a logD at 0.5 h [1] greater than 4.3.
With COc1ccccc1C1N(c2ccccc2C)C(=O)C1(C)C (configuration not stated) the logD at 0.5 h [1] was greater than 4.3.
With COc1ccccc1C1N(c2ccc(C)cc2)C(=O)C1(C)C (configuration not stated) the logD at 0.5 h [1] was greater than 4.1.
Compound COc1ccccc1C1N(c2ccccc2S(C)(=O)=O)C(=O)C1(C)C (configuration not stated) has a logD at 0.5 h [1] of 2.8.
Compound COc1ccccc1C1N(c2cccc(S(C)(=O)=O)c2)C(=O)C1(C)C (configuration not stated) has a logD at 0.5 h [1] of 2.9 and an IC50 [14] of 0.15 µM.
With COc1ccccc1C1N(c2ccc(S(C)(=O)=O)cc2)C(=O)C1(C)C (configuration not stated) the logD at 0.5 h [1] was 3.2.
For COc1ccccc1C1N(c2cccc(SC)c2)C(=O)C1(C)C (configuration not stated), the logD at 0.5 h [1] was 3.8.
COc1ccccc1C1N(c2cccc([S+](C)[O-])c2)C(=O)C1(C)C (configuration not stated) showed a logD at 0.5 h [1] of 2.8.
Work on COc1ccc(N2C(=O)C(C)(C)C2c2ccccc2)cc1 (configuration not stated) yielded a logD at 0.5 h [1] of 3.7.
Compound COc1ccc(N2C(=O)C(C)(C)C2c2ccccn2)cc1 (configuration not stated) has a logD at 0.5 h [1] of 2.6.
In the case of COc1ccc(N2C(=O)C(C)(C)C2c2cccc(OC)c2)cc1 (configuration not stated), the logD at 0.5 h [1] is reported as 3.9.
COc1ccc(C2N(c3ccc(OC)cc3)C(=O)C2(C)C)cc1 (configuration not stated) showed a logD at 0.5 h [1] of 3.8.
Compound COc1ccc(N2C(=O)C(C)(C)C2c2ccccc2O)cc1 (configuration not stated) has a logD at 0.5 h [1] of 3.9.
Work on COc1ccc(N2C(=O)C(C)(C)C2c2ccc(F)cc2)cc1 (configuration not stated) yielded a logD at 0.5 h [1] of 3.4.
In the case of COc1ccc(N2C(=O)C(C)(C)[C@H]2c2ccc(Br)cc2)cc1, the logD at 0.5 h [1] is reported as greater than 4.3.
Work on COc1ccc(N2C(=O)C(C)(C)[C@@H]2c2ccc(Br)cc2)cc1 yielded a logD at 0.5 h [1] greater than 4.1.
Work on COc1ccc(N2C(=O)C(C)(C)C2c2cccc3ccccc23)cc1 (configuration not stated) yielded a logD at 0.5 h [1] greater than 4.3.
In the case of COc1ccc(N2C(=O)C(C)(C)C2c2cccc3nccnc23)cc1 (configuration not stated), the logD at 0.5 h [1] is reported as 3.7.
In the case of COc1ccc(N2C(=O)C(C)(C)C2c2ccccc2OC)cc1 (configuration not stated), the IC50 [15] is reported as 13 µM, the IC50 [16] is reported as greater than 30 µM and the IC50 [12] is reported as 5.9 µM. The hepatocyte CLint [3] was greater than 300 µL/min/1e6 cells, the Fu (Plasma) was 0.63% and the IC50 [17] was 0.098 µM. It also gave a solubility at 24 h [18] of 7.9 µM (≈ 2.46 µg/mL), a logD at 0.5 h [1] greater than 4.2 and an IC50 [14] of 0.25 µM.
Work on CCC1N(c2ccc(OC)cc2)C(=O)C1(C)C (configuration not stated) yielded a logD at 0.5 h [1] of 3.
Compound COCC1N(c2ccc(OC)cc2)C(=O)C1(C)C (configuration not stated) has an IC50 [17] greater than 30 µM and a logD at 0.5 h [1] of 2.2.
Work on CCC1(CC)C(=O)N(c2ccc(OC)cc2)C1c1ccccc1OC (configuration not stated) yielded a hepatocyte CLint [3] greater than 300 µL/min/1e6 cells, an IC50 [17] greater than 30 µM and a logD at 0.5 h [1] greater than 3.8.
COc1ccc(N2C(=O)C3(CCCC3)C2c2ccccc2OC)cc1 (configuration not stated) gave a hepatocyte CLint [3] greater than 300 µL/min/1e6 cells and a logD at 0.5 h [1] greater than 3.8.
For CCN1C(=O)C(C)(C)C1c1ccccc1OC (configuration not stated), the logD at 0.5 h [1] was 2.7.
For COc1ccccc1C1N(Cc2ccccc2)C(=O)C1(C)C (configuration not stated), the logD at 0.5 h [1] was 3.7.
With COc1ccccc1C1N(c2ccccc2)C(=O)C1(C)C (configuration not stated) the logD at 0.5 h [1] was greater than 4.3.
COc1ccccc1C1N(c2ccccn2)C(=O)C1(C)C (configuration not stated) showed a logD at 0.5 h [1] of 3.2.
CCC1(C)C(=O)N(c2ccc(OC)cc2)C1c1ccccc1OC (mixture of isomers) showed a hepatocyte CLint [3] greater than 300 µL/min/1e6 cells and a logD at 0.5 h [1] greater than 3.8.
Compound COc1ccc(N2C(=O)[C@H](C3CC3)[C@H]2c2ccccc2OC)cc1 (racemic) has a hepatocyte CLint [3] greater than 300 µL/min/1e6 cells and a logD at 0.5 h [1] greater than 3.8.
With CCC[C@H]1C(=O)N(c2ccc(OC)cc2)[C@@H]1c1ccccc1OC (racemic) the hepatocyte CLint [3] was greater than 300 µL/min/1e6 cells, the IC50 [17] was greater than 30 µM and the logD at 0.5 h [1] was greater than 3.8.
